From US9775857B2, “Lignans isolated from Lasia spinosa (L.) Thwait” (Hong Kong Baptist University, priority 2015, dated 2017) come the findings set out here.

Converted amounts (≈) assume the structure as drawn. “Also recorded” adds a separate entry of the source.

In series [1] the test system is KYSE-150. Briefly: Cytotoxicity assay (MTT), KYSE-150. The note with it: human esophageal carcinoma cells, 1.56-50 μg/mL tested; for IC50: Homo sapiens, KYSE-150, 48 h, read-out: Cytotoxicity against KYSE-150, IC50; for Cytotoxicity against KYSE-150, IC50: 48 h. It counts as cell-based. The procedure:
(§1) Test compounds were dissolved in dimethyl sulfoxide (DMSO) to make stock solutions and further diluted in culture medium. Human esophageal carcinoma cell lines (KYSE-70, KYSE-150, KYSE-450 and KYSE-520) were cultured in RPMI 1640 or DMEM medium containing 10% fetal bovine serum and 1% antibiotics (Penicillin and strep). 3×10^3 cells/well were seeded in a 96-well plate and allowed to attach to the plate overnight. After the recovery, cells were treated with 1.56, 3.125, 6.25, 12.5, 25, 50 μg/mL of compounds in culture medium for 48 h. Then, 20 μL of MTT (5 mg/mL stock in PBS) per well was added into the medium (200 μL) and incubated for 4 h at 37° C. Finally, the culture medium was removed and 200 μL of DMSO were added. Absorbance of the solution was measured using microplate reader spectrophotometer (Bio-Rad Laboratories, Inc., Hercules, Calif.) at a wavelength of 570 nm.

Series [2] concerns KYSE-70. Briefly: Cytotoxicity assay (MTT), KYSE-70. The note with it: 48 h, 1.56-50 μg/mL tested; for IC50: KYSE-70, human esophageal carcinoma cells, read-out: Cytotoxicity against KYSE-70, IC50; for Cytotoxicity against KYSE-70, IC50: human esophageal carcinoma cells. In kind it is cell-based. The procedure:
as §1

The test system of series [3] is KYSE-520. Briefly: Cytotoxicity assay (MTT), KYSE-520. The note with it: human esophageal carcinoma cells, 1.56-50 μg/mL tested; for IC50: Homo sapiens, KYSE-520, 48 h, read-out: Cytotoxicity against KYSE-520, IC50. It counts as cell-based. The procedure: as §1
Series [4] deals with KYSE-450. Nature of the series: Cytotoxicity assay (MTT), KYSE-450. It counts as cell-based. The note with it: 48 h, 1.56-50 μg/mL tested; for IC50: KYSE-450, human esophageal carcinoma cells, read-out: Cytotoxicity against KYSE-450, IC50; for Cytotoxicity against KYSE-450, IC50: human esophageal carcinoma cells. The procedure:
as §1

In series [5] the test system is KYSE-150 cells. Briefly: Tumor xenograft mouse model. In kind it is in vivo, nude female mice. The note with it: KYSE-150 xenograft. The procedure:
The tumor xenograft mice were treated with a vehicle or compound 9 at 15 or 30 mg/kg once a day […] for 12 days. Tumor size was measured every two days and body weight was measured every day. On day 13, the mice were sacrificed, and tumor weight was measured (n=5, *p<0.05, **p<0.01, ***p<0.001, ****p<0.0001).
Six to eight weeks old nude female mice weighing about 16-20 g were purchased from the Laboratory Animal Services Center, the Chinese University of Hong Kong, and 2×10^6 KYSE-150 cells in […] saline were injected subcutaneously into the flanks of the mice. When the tumor volume reached about 100 mm^3, the mice were randomly divided into three groups (n=5). The control group was administered with saline, while compound 9 treatment groups were given different doses of 9 (15 or 30 mg/kg, respectively) by intraperitoneal injection. Tumor volume were measured by vernier caliper every two days for 12 days, and calculated according to the formula: Volume=(width)^2×length/2. At the end of observation, mice were killed to remove the tumors. Then the samples were fixed in 4% paraformaldehyde and embedded in paraffin. Five-micro-meter sections were stained with hematoxylin/eosin according to a standard procedure. Animal protocol was approved by the committee for Care of Laboratory Animals in the School of Chinese Medicine at the Hong Kong Baptist University.

Where [6] appears, read: 15 or 30 mg/kg once a day for 12 days.

Consider `COc1cc([C@H]2Oc3c(OC)cc(CCCO)cc3[C@@H]2CO)ccc1O` [Compound 8, Dihydrodehydrodiconifery Alcohol], for which the IC50 (as a rule, the concentration at which inhibition is half-maximal) was roughly 30 µg/mL (≈ 83.2 µM) in series [1], greater than 50 µg/mL in series [2], roughly 30 µg/mL (≈ 83.2 µM) in series [3] and greater than 50 µg/mL in series [4]. Also, in series [1], the “Cytotoxicity against KYSE-150, IC50” value is reported as 31.86 μg/mL. Besides, the “Cytotoxicity against KYSE-520, IC50” value in series [3] (48 h) is on record as 37.34 μg/mL.
Regarding `COc1cc([C@H]2OC[C@H]3[C@@H]2CO[C@@H]3c2cc(OC)c(O)c(OC)c2)cc(OC)c1O` [Compound 9, Syringaresinol], the IC50 in series [1], in series [2], in series [3] and in series [4] was greater than 50 µg/mL throughout. The body weight entry in series [5] (setting [6]) is “suppresses the body weight; also recorded: less body weight loss”. Also, in series [5] (setting [6]), the toxic death entry is reported as “no toxic death”. The weight of tumor entry in series [5] (15 or 30 mg/kg once a day for 12 days, day 13) was “suppresses the weight of tumor”. Moreover, the “tumor growth / size of tumor” value in series [5] (15 or 30 mg/kg once a day for 12 days, vs control) is “suppresses the size of tumor; also recorded: significant tumor growth delay”. The “H&E staining of the tumor tissue (histological manifestation)” value in series [5] (15 or 30 mg/kg, vs control (orderly and tightly)) is “obviously loose and messy”.
Regarding `COc1cc(CC(C)C(O)(CO)Cc2cc(OC)c(O)c(OC)c2)ccc1O` (stereo not shown) [Compound 3, 2-(4-Hydroxy-3,5-dimethoxybenzyl)-3-(4-hydroxy-3-methoxybenzyl)-1,2-butanediol], the IC50 in series [1] is 34.5 µg/mL (≈ 87.9 µM); in series [2], greater than 50 µg/mL; in series [3], greater than 50 µg/mL; in series [4], greater than 50 µg/mL.
Regarding `COc1cc(C[C@@H](CO)[C@H](CO)Cc2cc(OC)c(O)c(OC)c2)cc(OC)c1O` [Compound 2, 5,5′-Dimethoxysecoiso-lariciresinol], the “Cytotoxicity against KYSE-150, IC50” value in series [1] is reported as 49.63 μg/mL; in series [1] (listed as compound 2) it was roughly 50 μg/mL. The figures for the “Cytotoxicity against KYSE-70, IC50” value in series [2] and in series [2] (listed as compound 2) were 47.22 μg/mL and roughly 50 μg/mL, respectively. The figures for the “Cytotoxicity against KYSE-450, IC50” value in series [4] and in series [4] (listed as compound 2) were 39.21 μg/mL and roughly 50 μg/mL, respectively.
